One experiment deals with IRAK4 (Homo sapiens (Human), UniProt Q9NWZ3). The experiment is described as follows: IRAK4 Inhibition Assay. It is filed as biochemical. The note with it: ATP 500 μM; IRAK4 0.6 nM; 60 min room temperature; Caliper LABCHIP 3000.
A further experiment relates to Human whole blood. Briefly: IRAK4 Whole Blood Assay (IL-6 levels after stimulation with TLR2 agonist lipoteichoic acid). It is filed as cell-based. The note with it: 10 μg/mL lipoteichoic acid, 5 hours. The method, then: Human whole blood containing the anti-coagulant ACD-A was plated in 384-well plate (25 μL/well) and incubated with compounds for 60 minutes at 37° C. in a 5% CO2 incubator. The blood was stimulated with a TLR2 agonist, 10 μg/mL final concentration of lipoteichoic acid (Invivogen, San Diego, CA) in 25 μL RPMI (Gibco) for 5 hours in a 5% CO2 incubator. At the end of the incubation, plates were centrifuged at 2300 rpm for 5 minutes. Supernatants were harvested and analyzed for IL-6 levels by Flow Cytometry beads assay (BD Biosciences, San Jose, CA).

The values that follow come from patent US12492186B2, “Bicyclic heterocyclic compounds useful as IRAK4 inhibitors” (BRISTOL-MYERS SQUIBB COMPANY, priority 2019, dated 2025).

Sequence of IRAK4 (Q9NWZ3 whole entry, species assumed): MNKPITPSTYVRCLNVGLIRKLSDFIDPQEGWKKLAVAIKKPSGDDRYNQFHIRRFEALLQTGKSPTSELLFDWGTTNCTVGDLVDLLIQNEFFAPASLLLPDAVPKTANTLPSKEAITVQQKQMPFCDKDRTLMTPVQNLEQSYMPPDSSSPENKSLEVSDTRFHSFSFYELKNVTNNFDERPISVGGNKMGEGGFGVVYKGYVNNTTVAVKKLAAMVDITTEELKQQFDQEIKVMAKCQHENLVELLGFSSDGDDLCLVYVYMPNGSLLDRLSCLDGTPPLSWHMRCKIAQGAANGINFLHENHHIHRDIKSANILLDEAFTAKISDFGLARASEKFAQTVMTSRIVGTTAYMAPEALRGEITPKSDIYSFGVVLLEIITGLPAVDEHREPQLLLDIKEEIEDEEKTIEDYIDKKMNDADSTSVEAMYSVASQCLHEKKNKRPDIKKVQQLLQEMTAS

As to `CC(C)Nc1c(-c2cn(CC3CC3)nn2)cnc2ccc(-c3cn[nH]c3)cc12` [Example 130, 3-(1-(cyclopropylmethyl)-1H-1,2,3-triazol-4-yl)-N-isopropyl-6-(1H-pyrazol-4-yl) quinolin-4-amine], the IC50 (as a rule, the concentration needed to halve the response being measured) on IRAK4 was determined as 6 nM. In addition, in the experiment on Human whole blood, the EC50 – broadly, the concentration needed to bring the measured effect to its halfway point – amounted to 1890 nM.
As for `CC(O)CCNC(=O)c1cnc2ccc(-c3cn[nH]c3)cc2c1NC(C)C` (stereo not shown) [Example 36, N-(3-hydroxybutyl)-4-(isopropylamino)-6-(1H-pyrazol-4-yl)quinoline-3-carboxamide], the IC50 at IRAK4 is 13.7 nM. In the experiment on Human whole blood, this compound returned an EC50 of 759 nM.
On the same counts, the results for `O=C(NCCC1CCS(=O)(=O)CC1)c1cnc2ccc(-c3cn[nH]c3)cc2c1NC1CC1` [Example 120, 4-(cyclopropylamino)-N-(2-(1,1-dioxidotetrahydro-2H-thiopyran-4-yl)ethyl)-6-(1H-pyrazol-4-yl)quinoline-3-carboxamide] are 8.7 nM and 6040 nM.
`CC(C)Nc1c(C(=O)NCC2CCS(=O)(=O)C2)cnc2ccc(-c3cn[nH]c3)cc12` (stereo not shown) [Example 87, N-((1,1-dioxidotetrahydrothiophen-3-yl)methyl)-4-(isopropylamino)-6-(1H-pyrazol-4-yl)quinoline-3-carboxamide]: the IC50 at IRAK4 amounted to 6.8 nM. This compound displayed an EC50 with Human whole blood of 458 nM.
On the same counts, the results for `CC(C)Nc1c(C(=O)NCCC(C)(C)O)cnc2ccc(-c3cn[nH]c3)cc12` [Example 17, N-(3-hydroxy-3-methylbutyl)-4-(isopropylamino)-6-(1H-pyrazol-4-yl)quinoline-3-carboxamide] are 8 nM and 936 nM.
Regarding `CC(C)Nc1c(C(=O)NC2CCN(S(=O)(=O)c3cccnc3)CC2)cnc2ccc(-c3cn[nH]c3)cc12` [Example 84, 4-(isopropylamino)-6-(1H-pyrazol-4-yl)-N-(1-(pyridin-3-ylsulfonyl)piperidin-4-yl)quinoline-3-carboxamide], the IC50 at IRAK4 stood at 17.1 nM. In the experiment with Human whole blood, this compound registered an EC50 of 1170 nM.
Regarding `CC(C)Nc1c(C(=O)NCCN2CCOCC2)cnc2ccc(-c3cn[nH]c3)cc12` [Example 44, 4-(isopropylamino)-N-(2-morpholinoethyl)-6-(1H-pyrazol-4-yl)quinoline-3-carboxamide], the IC50 at IRAK4 came out at 9.7 nM. In the experiment on Human whole blood, it took 1190 nM to reach a half-maximal effect (EC50).
For the compound `CC(=O)N1CC(n2cc(-c3cnc4ccc(-c5cn[nH]c5)cc4c3NC(C)C)nn2)C1` [Example 132, 1-(3-(4-(4-(isopropylamino)-6-(1H-pyrazol-4-yl)quinolin-3-yl)-1H-1,2,3-triazol-1-yl)azetidin-1-yl)ethan-1-one], on IRAK4, the IC50 was 2.9 nM. In the experiment with Human whole blood, the EC50 stood at 799 nM.
On the same counts, the results for `CC(C)Nc1c(C(=O)NC[C@@H](F)C(C)(C)O)cnc2ccc(-c3cn[nH]c3)nc12` [Example 141, (R)—N-(2-fluoro-3-hydroxy-3-methylbutyl)-4-(isopropylamino)-6-(1H-pyrazol-4-yl)-1,5-naphthyridine-3-carboxamide] are 1.4 nM and 40 nM.
On the same counts, the results for `CC(C)Nc1c(C(=O)NCCN2CCS(=O)(=O)CC2)nnc2ccc(-c3cn[nH]c3)cc12` [Example 160, N-(2-(1,1-dioxidothiomorpholino)ethyl)-4-(isopropylamino)-6-(1H-pyrazol-4-yl)cinnoline-3-carboxamide] are 2.7 nM and 2090 nM.
On to `CC(C)Nc1c(C(=O)NCCCc2ccncc2)cnc2ccc(-c3cn[nH]c3)cc12` [Example 114, 4-(isopropylamino)-6-(1H-pyrazol-4-yl)-N-(3-(pyridin-4-yl)propyl)quinoline-3-carboxamide], for which the IC50 on IRAK4 is 9.1 nM. The compound also yielded an EC50 in the experiment on Human whole blood of 1740 nM.
`CC(C)CCNC(=O)c1cnc2ccc(-c3cn[nH]c3)cc2c1NC(C)C` [Example 15, N-isopentyl-4-(isopropylamino)-6-(1H-pyrazol-4-yl)quinoline-3-carboxamide]: on IRAK4, the IC50 came out at 7.7 nM. The compound also had an EC50 in the experiment on Human whole blood of 675 nM.
On the same counts, the results for `CC(C)Nc1c(C(=O)NCCC2CCS(=O)(=O)CC2)cnc2ccc(-c3cn[nH]c3)cc12` [Example 112, N-(2-(1,1-dioxidotetrahydro-2H-thiopyran-4-yl)ethyl)-4-(isopropylamino)-6-(1H-pyrazol-4-yl) quinoline-3-carboxamide] are 4.3 nM and 2730 nM.
Regarding `CC(C)Nc1c(-c2cn(CCCO)nn2)cnc2ccc(-c3cn[nH]c3)cc12` [Example 131, 3-(4-(4-(isopropylamino)-6-(1H-pyrazol-4-yl)quinolin-3-yl)-1H-1,2,3-triazol-1-yl)propan-1-ol], on IRAK4, the IC50 amounted to 7.8 nM. Besides, the EC50 in the experiment with Human whole blood turned out to be 713 nM.
With `CC(C)Nc1c(C(=O)NC2CCN(S(C)(=O)=O)CC2)cnc2ccc(-c3cn[nH]c3)cc12` [Example 79, 4-(isopropylamino)-N-(1-(methylsulfonyl)piperidin-4-yl)-6-(1H-pyrazol-4-yl) quinoline-3-carboxamide], the IC50 at IRAK4 came out at 5.7 nM. The compound also yielded an EC50 in the experiment on Human whole blood of 618 nM.
On the same counts, the results for `CC(C)Nc1c(C(=O)NCC2CCS(=O)(=O)C2)nnc2ccc(-c3cn[nH]c3)cc12` (stereo not shown) [Example 159, N-((1,1-dioxidotetrahydrothiophen-3-yl)methyl)-4-(isopropylamino)-6-(1H-pyrazol-4-yl)cinnoline-3-carboxamide] are 4.7 nM and 556 nM.
On the same counts, the results for `CC(C)Nc1c(C(=O)NC[C@@H](F)C(C)(C)O)nnc2ccc(-c3cn[nH]c3)cc12` [Example 158, (R)—N-(2-fluoro-3-hydroxy-3-methylbutyl)-4-(isopropylamino)-6-(1H-pyrazol-4-yl) cinnoline-3-carboxamide] are 1.6 nM and 802 nM.
On the same counts, the results for `CC(C)Nc1c(C(=O)NCCCc2csc(N)n2)cnc2ccc(-c3cn[nH]c3)cc12` [Example 113, N-(3-(2-aminothiazol-4-yl)propyl)-4-(isopropylamino)-6-(1H-pyrazol-4-yl)quinoline-3-carboxamide] are 5.8 nM and 1630 nM.
As to `CC(C)Nc1c(C(=O)NC2CCN(Cc3ccncc3)CC2)cnc2ccc(-c3cn[nH]c3)cc12` [Example 78, 4-(isopropylamino)-6-(1H-pyrazol-4-yl)-N-(1-(pyridin-4-ylmethyl)piperidin-4-yl)quinoline-3-carboxamide], the IC50 on IRAK4 came to 16.8 nM. This compound displayed an EC50 with Human whole blood of 1360 nM.
Regarding `CCOCCNC(=O)c1cnc2ccc(-c3cn[nH]c3)cc2c1NC(C)C` [Example 10, N-(2-ethoxyethyl)-4-(isopropylamino)-6-(1H-pyrazol-4-yl)quinoline-3-carboxamide], the half-maximal inhibitory concentration (IC50) at IRAK4 turned out to be 15 nM. Moreover, the EC50 with Human whole blood worked out at 2260 nM.
On the same counts, the results for `CC(C)CCn1cc(-c2cnc3ccc(-c4cn[nH]c4)cc3c2NC(C)C)nn1` [Example 129, 3-(1-isopentyl-1H-1,2,3-triazol-4-yl)-N-isopropyl-6-(1H-pyrazol-4-yl)quinolin-4-amine] are 1.2 nM and 1430 nM.
On the same counts, the results for `CC(=O)N[C@H]1C[C@H](NC(=O)c2cnc3ccc(-c4cn[nH]c4)cc3c2NC(C)C)C1` [Example 46, N-((1r,3r)-3-acetamidocyclobutyl)-4-(isopropylamino)-6-(1H-pyrazol-4-yl)quinoline-3-carboxamide] are 6.6 nM and 2100 nM.
On the same counts, the results for `CCOC(=O)N1CCC(NC(=O)c2cnc3ccc(-c4cn[nH]c4)cc3c2NC(C)C)CC1` [Example 80, ethyl 4-(4-(isopropylamino)-6-(1H-pyrazol-4-yl)quinoline-3-carboxamido)piperidine-1-carboxylate] are 13 nM and 1320 nM.
For `O=C(NCCN1CCS(=O)(=O)CC1)c1cnc2ccc(-c3cn[nH]c3)cc2c1NC1CC1` [Example 117, 4-(cyclopropylamino)-N-(2-(1,1-dioxidothiomorpholino)ethyl)-6-(1H-pyrazol-4-yl)quinoline-3-carboxamide], on IRAK4, the IC50 is 4.9 nM. The response in the experiment with Human whole blood was half-maximal at 5190 nM (EC50).
On the same counts, the results for `CC(=O)N1CCC(c2cc(-c3cnc4ccc(-c5cn[nH]c5)cc4c3NC(C)C)on2)CC1` [Example 127, 1-(4-(5-(4-(isopropylamino)-6-(1H-pyrazol-4-yl)quinolin-3-yl)isoxazol-3-yl)piperidin-1-yl)ethan-1-one] are 6.7 nM and 1170 nM.
Turning to `CC(C)Nc1c(C(=O)N[C@H]2CC[C@H](N)CC2)cnc2ccc(-c3cn[nH]c3)cc12` [Example 23, N-((1r,4r)-4-aminocyclohexyl)-4-(isopropylamino)-6-(1H-pyrazol-4-yl)quinoline-3-carboxamide], the IC50 on IRAK4 was 7.2 nM. In the experiment on Human whole blood, the EC50 was 1700 nM.
With `CC(C)Nc1c(C(=O)NCCC(C)(C)O)cnc2ccc(-c3cn[nH]c3)nc12` [Example 138, N-(3-hydroxy-3-methylbutyl)-4-(isopropylamino)-6-(1H-pyrazol-4-yl)-1,5-naphthyridine-3-carboxamide], at IRAK4, the IC50 was 2.7 nM. Besides, the EC50 in the experiment with Human whole blood was determined as 58 nM.
On the same counts, the results for `Cc1cc2ncc(C(=O)NCCC(C)(C)O)c(NC(C)C)c2cc1-c1cn[nH]c1` [Example 59, N-(3-hydroxy-3-methylbutyl)-4-(isopropylamino)-7-methyl-6-(1H-pyrazol-4-yl)quinoline-3-carboxamide] are 16 nM and 4740 nM.
On the same counts, the results for `COC(=O)N[C@H]1CC[C@H](NC(=O)c2cnc3ccc(-c4cn[nH]c4)cc3c2NC(C)C)CC1` [Example 25, methyl ((1r,4r)-4-(4-(isopropylamino)-6-(1H-pyrazol-4-yl)quinoline-3-carboxamido)cyclohexyl)carbamate] are 3.3 nM and 1280 nM.
